{"source": "patent US9499550B2", "about": "(BRISTOL-MYERS SQUIBB COMPANY, priority 2012, dated 2016)", "key": {"[1]": {"system": "HCV genotype 1a (H77 strain) replicon in HUH-7 cells", "test": "HCV replicon luciferase reporter assay, genotype 1a", "format": "cell-based", "details": "3 days incubation", "source_text": "(§1) Generation of HCV Replicon\n(§2) An HCV replicon whole cell system was established as described by Lohmann V, Korner F, Koch J, Herian U, Theilmann L, Bartenschlager R., Science 285(5424):110-3 (1999) and modified to introduce a luciferase reporter, as first described by Krieger et al (Krieger N, Lohmann V, and Bartenschlager R, J. Virol. 75(10):4614-4624 (2001)). CDNA encoding a humanized form of the Renilla luciferase gene and a linker sequence fused directly to the 3′-end of the luciferase gene were introduced into the replicon construct using an Asc1 restriction site located in core, directly upstream of the neomycin marker gene. The adaptive mutation at position 1179 (serine to isoleucine) was also introduced (Blight K J, Kolykhalov, A A, Rice, C M, Science 290(5498):1972-1974). A stable cell line constitutively expressing this HCV replicon construct was generated by first linearizing plasmid DNAs with ScaI. RNA transcripts were synthesized in vitro using the T7 MegaScript transcription kit (Ambion, Austin, Tex.) according to manufacturer's directions. In vitro transcripts of the cDNA were transfected into the human hepatoma cell line, HUH-7. […] Resulting cell lines were characterized for positive and negative strand RNA production and protein production over time.\nA stable HCV replicon luciferase reporter cell line representing the genotype 1a H77 strain (Yanagi M, Purcell R H, Emerson S U, et al. Transcripts from a single full-length cDNA clone of hepatitis C virus are infectious when directly transfected into the liver of a chimpanzee. Proc Natl Acad Sci USA 1997; 94(16):8738-8743) was generated as described previously for the genotype 1b(Con1) replicon luciferase cell line. The replicon construct was modified by introducing mutations were introduced into the genes encoding the NS3 helicase domain (proline replaced by leucine at position 1496) and NSSA (serine to isoleucine at position 2204) to improve replication in cell culture.\n(§3) HCV Replicon Luciferase Reporter Assay\n(§4) HCV replicon luciferase assays were developed to monitor the inhibitory effects of compounds described in the disclosure on HCV genotypes 1a and 1b viral replication. HUH-7 cells, constitutively expressing the HCV replicon, were grown in Dulbecco's Modified Eagle Media (DMEM) (Gibco-BRL) containing 10% Fetal calf serum (FCS) (Sigma) and 1 mg/mL G418 (Gibco-BRL). Compounds were serially diluted 3 folds in DMSO for a twenty-point titration and subsequently transferred to sterile 384-well tissue-culture treated plates (Corning cat #3571). The plates were then seeded with 50 μL of cells at a density of 3.0×10^3 cells/well in DMEM containing 4% FCS (final DMSO concentration at 0.5%). After 3 days incubation at 37° C., cells were analyzed for Renilla Luciferase activity using the EnduRen as substrate (Promega cat #E6485). The EnduRen substrate was diluted in DMEM and then added to the plates to a final concentration of 7.5 μM. The plates were incubated for 2 hrs at 37° C. and then read immediately for 30 seconds with Viewlux Imager (PerkinElmer) using a luminescence program. To assess cytotoxicity of compounds, CC50 values were generated by multiplexing the EnduRen-containing plates with Cell Titer-Blue (Promega, cat # G8082). Cell-Titer Blue (3 μL) was added to each well and incubated for 8 hrs at 37° C. The fluorescence signal from each well was read, with an excitation wavelength at 525/10 nm and an emission wavelength of 598/10 nm, using the Viewlux Imager.\n(§5) The EC50 values for compounds were calculated by using a four-parameter logistic equation: y=A+((B−A)/(1+((C/x)^D))), where A and B denotes minimal and maximal % inhibition, respectively, C is the EC50, D is the hill slope and x represents compound concentration."}, "[2]": {"system": "HCV genotype 1b (Con1) replicon in HUH-7 cells", "test": "HCV replicon luciferase reporter assay, genotype 1b", "format": "cell-based", "details": "3 days incubation", "source_text": "as §1\nas §2, with “time. […]” for “time.”\nas §3, §4, §5"}, "[3]": {"details": "HCV genotype 1a replicon luciferase, read-out: LE_1a (EC50, range)"}, "[4]": {"details": "HCV genotype 1b replicon luciferase, read-out: LE_1b (EC50, range)"}, "[5]": {"details": "Hepatitis C virus, Huh-7, 72 h, HCV genotype 1a replicon luciferase assay, range class, read-out: LE_1a (EC50, range)"}, "[6]": {"details": "Hepatitis C virus, Huh-7, 72 h, HCV genotype 1b replicon luciferase assay, range class, read-out: LE_1b (EC50, range)"}}, "note": "Read-outs that look alike come from different tables or passages of the source.", "data": [{"compound": "1,1,1-trifluoro-2-methylpropan-2-yl((2R,6S,7R,9R,13aS,14aR,16aS,Z)-14a-((cyclopropylsulfonyl)carbamoyl)-2-((3,7-dimethoxy-2-(trifluoromethyl)quinoxalin-6-yl)oxy)-7-ethyl-9-methyl-5,16-dioxo-1,2,3,5,6,7,8,9,10,11,13a,14,14a,15,16,16a-hexadecahydrocyclopropa[e]pyrrolo[1,2-a][1,4]diazacyclopentadecin-6-yl)carbamate [Compound 4355]", "values": [{"measurement": "EC50", "setting": "[1]; [3]", "value": "5.01 to 35", "unit": "nM"}, {"measurement": "EC50", "setting": "[2]; [4]", "value": "5.01 to 35", "unit": "nM"}]}, {"compound": "3,3-difluoro-2-methylbutan-2-yl((2R,6S,7R,9R,13aS,14aR,16aS,Z)-7-ethyl-2-((2-(3-fluoro-4-isopropoxyphenyl)-7-methoxyquinolin-4-yl)oxy)-9-methyl-14a-(((1-methylcyclopropyl)sulfonyl)carbamoyl)-5,16-dioxo-1,2,3,5,6,7,8,9,10,11,13a,14,14a,15,16,16a-hexadecahydrocyclopropa[e]pyrrolo[1,2-a][1,4]diazacyclopentadecin-6-yl)carbamate [Compound 5550]", "values": [{"measurement": "EC50", "setting": "[1]; [3]", "value": "0.51 to 1", "unit": "nM"}, {"measurement": "EC50", "setting": "[2]; [4]", "value": "1.01 to 5", "unit": "nM"}]}, {"compound": "CC1CC/C=C\\[C@@H]2C[C@@]2(C(=O)NS(=O)(=O)C2(CF)CC2)NC(=O)[C@@H]2C[C@@H](Oc3nccc4c5c(ccc34)OCCO5)CN2C(=O)[C@@H](NC(=O)OC(C)(C)C)[C@H](C)C1", "note": "(stereo in doubt) [Compound 5321, tert-butyl ((2R,6S,7R,9R,13aS,14aR,16aS,Z)-2-((2,3-dihydro-[1,4]dioxino[2,3-f]isoquinolin-7-yl)oxy)-14a-(((1-(fluoromethyl)cyclopropyl)sulfonyl)carbamoyl)-7,9-dimethyl-5,16-dioxo-1,2,3,5,6,7,8,9,10,11,13a,14,14a,15,16,16a-hexadecahydrocyclopropa[e]pyrrolo[1,2-a][1,4]diazacyclopentadecin-6-yl)carbamate]", "values": [{"measurement": "EC50", "setting": "[1]; Hepatitis C virus, Huh-7, 72 h, HCV genotype 1a replicon luciferase, read-out: LE_1a (EC50, range)", "value": "< 5.46", "unit": "nM"}, {"measurement": "EC50", "setting": "[2]; Hepatitis C virus, Huh-7, 72 h, HCV genotype 1b replicon luciferase, read-out: LE_1b (EC50, range)", "value": "< 5.46", "unit": "nM"}]}, {"compound": "COc1ccc2c(O[C@@H]3C[C@H]4C(=O)N[C@]5(C(=O)NS(=O)(=O)C6CC6)C[C@H]5/C=C\\CC[C@@H](C)C[C@@H](C)[C@H](NC(=O)OC(C)(C)C(F)(F)F)C(=O)N4C3)nccc2c1", "note": "[Compound 7, 1,1,1-trifluoro-2-methylpropan-2-yl((2R,6S,7R,9R,13aS,14aR,16aS,Z)-14a-((cyclopropylsulfonyl)carbamoyl)-2-((6-methoxyisoquinolin-1-yl)oxy)-7,9-dimethyl-5,16-dioxo-1,2,3,5,6,7,8,9,10,11,13a,14,14a,15,16,16a-hexadecahydrocyclopropa[e]pyrrolo[1,2-a][1,4]diazacyclopentadecin-6-yl)carbamate]", "values": [{"measurement": "EC50", "setting": "[1]; [5]", "value": "< 5.46", "unit": "nM"}, {"measurement": "EC50", "setting": "[2]; [6]", "value": "< 5.46", "unit": "nM"}]}, {"compound": "COc1ccc2c(O[C@@H]3C[C@H]4C(=O)N[C@]5(C(=O)NS(=O)(=O)C6(F)CC6)C[C@H]5/C=C\\CC[C@@H](C)C[C@@H](C)[C@H](NC(=O)OC(C)(C)C)C(=O)N4C3)nccc2c1", "note": "[Compound 9, tert-butyl ((2R,6S,7R,9R,13aS,14aR,16aS,Z)-14a-(((1-fluorocyclopropyl)sulfonyl)carbamoyl)-2-((6-methoxyisoquinolin-1-yl)oxy)-7,9-dimethyl-5,16-dioxo-1,2,3,5,6,7,8,9,10,11,13a,14,14a,15,16,16a-hexadecahydrocyclopropa[e]pyrrolo[1,2-a][1,4]diazacyclopentadecin-6-yl)carbamate]", "values": [{"measurement": "EC50", "setting": "[1]; [5]", "value": "< 5.46", "unit": "nM"}, {"measurement": "EC50", "setting": "[2]; [6]", "value": "< 5.46", "unit": "nM"}]}, {"compound": "COc1ccc2c(O[C@@H]3C[C@H]4C(=O)N[C@]5(C(=O)NS(=O)(=O)C6(F)CC6)C[C@H]5/C=C\\CC[C@H](C)C[C@@H](C)[C@H](NC(=O)OC(C)(C)C)C(=O)N4C3)nccc2c1", "note": "[Compound 10, tert-butyl ((2R,6S,7R,9S,13aS,14aR,16aS,Z)-14a-(((1-fluorocyclopropyl)sulfonyl)carbamoyl)-2-((6-methoxyisoquinolin-1-yl)oxy)-7,9-dimethyl-5,16-dioxo-1,2,3,5,6,7,8,9,10,11,13a,14,14a,15,16,16a-hexadecahydrocyclopropa[e]pyrrolo[1,2-a][1,4]diazacyclopentadecin-6-yl)carbamate]", "values": [{"measurement": "EC50", "setting": "[1]; [5]", "value": "< 5.46", "unit": "nM"}, {"measurement": "EC50", "setting": "[1]; Hepatitis C virus, Huh-7, 72 h, HCV genotype 1a replicon luciferase assay, read-out: LE_1a (EC50)", "value": 3.08, "unit": "nM"}, {"measurement": "EC50", "setting": "[2]; [6]", "value": "< 5.46", "unit": "nM"}, {"measurement": "EC50", "setting": "[2]; Hepatitis C virus, Huh-7, 72 h, HCV genotype 1b replicon luciferase assay, read-out: LE_1b (EC50)", "value": 0.8, "unit": "nM"}]}, {"compound": "COc1ccc2c(O[C@@H]3C[C@H]4C(=O)N[C@]5(C(=O)NS(=O)(=O)C6(F)CC6)C[C@H]5/C=C\\CC[C@@H](C)C[C@@H](C)[C@H](NC(=O)OC(C)(C)C(F)(F)F)C(=O)N4C3)nccc2c1", "note": "[Compound 11]", "values": [{"measurement": "EC50", "setting": "[1]; Hepatitis C virus, GETYPE1A, Huh-7, 72 h, HCV genotype 1a replicon luciferase assay, range class, read-out: LE_1a (EC50, range)", "value": "< 5.46", "unit": "nM"}, {"measurement": "EC50", "setting": "[2]; Hepatitis C virus, GETYPE1B, Huh-7, 72 h, HCV genotype 1b replicon luciferase assay, range class, read-out: LE_1b (EC50, range)", "value": "< 5.46", "unit": "nM"}]}, {"compound": "COCCn1nc(O[C@@H]2C[C@H]3C(=O)N[C@]4(C(=O)NS(=O)(=O)C5CC5)C[C@H]4/C=C\\CC[C@H](C)C[C@@H](C)[C@H](NC(=O)OC(C)(C)C(C)(F)F)C(=O)N3C2)c2ccccc2c1=O", "note": "[Compound 1023, 3,3-difluoro-2-methylbutan-2-yl((2R,6S,7R,9S,13aS,14aR,16aS,Z)-14a-((cyclopropylsulfonyl)carbamoyl)-2-((3-(2-methoxyethyl)-4-oxo-3,4-dihydrophthalazin-1-yl)oxy)-7,9-dimethyl-5,16-dioxo-1,2,3,5,6,7,8,9,10,11,13a,14,14a,15,16,16a-hexadecahydrocyclopropa[e]pyrrolo[1,2-a][1,4]diazacyclopentadecin-6-yl)carbamate]", "values": [{"measurement": "EC50", "setting": "[2]; [6]", "value": "> 87.4", "unit": "nM"}]}, {"compound": "COc1ccc2c(O[C@@H]3C[C@H]4C(=O)N[C@]5(C(=O)NS(=O)(=O)C6(CF)CC6)C[C@H]5/C=C\\CC[C@H](C)C[C@@H](C)[C@H](NC(=O)OC(C)(C)C(C)(F)F)C(=O)N4C3)nccc2c1", "note": "[Compound 1142, 3,3-difluoro-2-methylbutan-2-yl((2R,6S,7R,9S,13aS,14aR,16aS,Z)-14a-(((1-(fluoromethyl)cyclopropyl)sulfonyl)carbamoyl)-2-((6-methoxyisoquinolin-1-yl)oxy)-7,9-dimethyl-5,16-dioxo-1,2,3,5,6,7,8,9,10,11,13a,14,14a,15,16,16a-hexadecahydrocyclopropa[e]pyrrolo[1,2-a][1,4]diazacyclopentadecin-6-yl)carbamate]", "values": [{"measurement": "EC50", "setting": "[2]; [6]", "value": "< 5.46", "unit": "nM"}]}]}
